Measured values published in the NIST ThermoML archive (doi:10.1016/j.fluid.2015.07.030).
Numbers after ± are expanded uncertainties.

Assay: refractive index (other wavelength) (dimensionless); xn = mol fraction of the nth substance listed
Details: 95.99 kPa, Liquid, Standard Abbe refractometry

OCCOCCOCCO [triethylene glycol] + O
Details	refractive index
303.15 K, Wavelength=587.6 nm, x2 = 0.8473	1.40803 ± 0.00032
303.15 K, Wavelength=587.6 nm, x2 = 0.8719	1.40124 ± 0.00032
303.15 K, Wavelength=587.6 nm, x2 = 0.8926	1.39369 ± 0.00032
303.15 K, Wavelength=587.6 nm, x2 = 0.9106	1.38817 ± 0.00032
303.15 K, Wavelength=587.6 nm, x2 = 0.9254	1.37798 ± 0.00032
303.15 K, Wavelength=587.6 nm, x2 = 0.9303	1.37934 ± 0.00031
303.15 K, Wavelength=587.6 nm, x2 = 0.9391	1.37533 ± 0.00031
303.15 K, Wavelength=587.6 nm, x2 = 0.951	1.36879 ± 0.00031
303.15 K, Wavelength=587.6 nm, x2 = 0.9599	1.36294 ± 0.00031
303.15 K, Wavelength=587.6 nm, x2 = 0.9708	1.35503 ± 0.00031
303.15 K, Wavelength=587.6 nm, x2 = 0.979	1.35005 ± 0.00031
303.15 K, Wavelength=587.6 nm, x2 = 0.9867	1.34407 ± 0.00031
303.15 K, Wavelength=587.6 nm, x2 = 0.9936	1.33792 ± 0.00031
303.15 K, Wavelength=589.3 nm, x2 = 0	1.45267 ± 0.00033
303.15 K, Wavelength=589.3 nm, x2 = 0.1056	1.45131 ± 0.00033
303.15 K, Wavelength=589.3 nm, x2 = 0.2069	1.44969 ± 0.00032
303.15 K, Wavelength=589.3 nm, x2 = 0.3104	1.44605 ± 0.00032
303.15 K, Wavelength=589.3 nm, x2 = 0.4844	1.44261 ± 0.00032
303.15 K, Wavelength=589.3 nm, x2 = 0.5016	1.44163 ± 0.00032
303.15 K, Wavelength=589.3 nm, x2 = 0.5952	1.43507 ± 0.00032
303.15 K, Wavelength=589.3 nm, x2 = 0.6016	1.43519 ± 0.00032
303.15 K, Wavelength=589.3 nm, x2 = 0.6788	1.42871 ± 0.00032
303.15 K, Wavelength=589.3 nm, x2 = 0.7835	1.41945 ± 0.00032
303.15 K, Wavelength=589.3 nm, x2 = 0.8184	1.41428 ± 0.00032
303.15 K, Wavelength=589.3 nm, x2 = 0.8473	1.40797 ± 0.00032
303.15 K, Wavelength=589.3 nm, x2 = 0.8719	1.40118 ± 0.00032
303.15 K, Wavelength=589.3 nm, x2 = 0.8926	1.39363 ± 0.00032
303.15 K, Wavelength=589.3 nm, x2 = 0.9106	1.38811 ± 0.00032
303.15 K, Wavelength=589.3 nm, x2 = 0.9254	1.37792 ± 0.00032
303.15 K, Wavelength=589.3 nm, x2 = 0.9303	1.37928 ± 0.00031
303.15 K, Wavelength=589.3 nm, x2 = 0.9391	1.37531 ± 0.00031
303.15 K, Wavelength=589.3 nm, x2 = 0.951	1.36873 ± 0.00031
303.15 K, Wavelength=589.3 nm, x2 = 0.9599	1.36288 ± 0.00031
303.15 K, Wavelength=589.3 nm, x2 = 0.9708	1.35497 ± 0.00031
303.15 K, Wavelength=589.3 nm, x2 = 0.979	1.34999 ± 0.00031
303.15 K, Wavelength=589.3 nm, x2 = 0.9867	1.34402 ± 0.00031
303.15 K, Wavelength=589.3 nm, x2 = 0.9936	1.33786 ± 0.00031
303.15 K, Wavelength=632.8 nm, x2 = 0	1.4511 ± 0.00033
303.15 K, Wavelength=632.8 nm, x2 = 0.1056	1.44977 ± 0.00033
303.15 K, Wavelength=632.8 nm, x2 = 0.2069	1.44815 ± 0.00032
303.15 K, Wavelength=632.8 nm, x2 = 0.3104	1.44452 ± 0.00032
303.15 K, Wavelength=632.8 nm, x2 = 0.4844	1.44109 ± 0.00032
303.15 K, Wavelength=632.8 nm, x2 = 0.5016	1.44012 ± 0.00032
303.15 K, Wavelength=632.8 nm, x2 = 0.5952	1.43356 ± 0.00032
303.15 K, Wavelength=632.8 nm, x2 = 0.6016	1.43369 ± 0.00032
303.15 K, Wavelength=632.8 nm, x2 = 0.6788	1.42724 ± 0.00032
303.15 K, Wavelength=632.8 nm, x2 = 0.7835	1.41799 ± 0.00032
303.15 K, Wavelength=632.8 nm, x2 = 0.8184	1.41284 ± 0.00032
303.15 K, Wavelength=632.8 nm, x2 = 0.8473	1.40655 ± 0.00032
303.15 K, Wavelength=632.8 nm, x2 = 0.8719	1.39977 ± 0.00032
303.15 K, Wavelength=632.8 nm, x2 = 0.8926	1.39224 ± 0.00032
303.15 K, Wavelength=632.8 nm, x2 = 0.9106	1.38673 ± 0.00032
303.15 K, Wavelength=632.8 nm, x2 = 0.9254	1.37655 ± 0.00032
303.15 K, Wavelength=632.8 nm, x2 = 0.9303	1.37792 ± 0.00031
303.15 K, Wavelength=632.8 nm, x2 = 0.9391	1.37393 ± 0.00031
303.15 K, Wavelength=632.8 nm, x2 = 0.951	1.36739 ± 0.00031
303.15 K, Wavelength=632.8 nm, x2 = 0.9599	1.36155 ± 0.00031
303.15 K, Wavelength=632.8 nm, x2 = 0.9708	1.35367 ± 0.00031
303.15 K, Wavelength=632.8 nm, x2 = 0.979	1.34869 ± 0.00031
303.15 K, Wavelength=632.8 nm, x2 = 0.9867	1.34275 ± 0.00031
303.15 K, Wavelength=632.8 nm, x2 = 0.9936	1.3366 ± 0.00031
303.15 K, Wavelength=644 nm, x2 = 0	1.45075 ± 0.00033
303.15 K, Wavelength=644 nm, x2 = 0.1056	1.44941 ± 0.00033
303.15 K, Wavelength=644 nm, x2 = 0.2069	1.4478 ± 0.00032
303.15 K, Wavelength=644 nm, x2 = 0.3104	1.44417 ± 0.00032
303.15 K, Wavelength=644 nm, x2 = 0.4844	1.44075 ± 0.00032
303.15 K, Wavelength=644 nm, x2 = 0.5016	1.43978 ± 0.00032
303.15 K, Wavelength=644 nm, x2 = 0.5952	1.43321 ± 0.00032
303.15 K, Wavelength=644 nm, x2 = 0.6016	1.43334 ± 0.00032
303.15 K, Wavelength=644 nm, x2 = 0.6788	1.42689 ± 0.00032
303.15 K, Wavelength=644 nm, x2 = 0.7835	1.41765 ± 0.00032
303.15 K, Wavelength=644 nm, x2 = 0.8184	1.41249 ± 0.00032
303.15 K, Wavelength=644 nm, x2 = 0.8473	1.4062 ± 0.00032
303.15 K, Wavelength=644 nm, x2 = 0.8719	1.39943 ± 0.00032
303.15 K, Wavelength=644 nm, x2 = 0.8926	1.39191 ± 0.00032
303.15 K, Wavelength=644 nm, x2 = 0.9106	1.38639 ± 0.00032
303.15 K, Wavelength=644 nm, x2 = 0.9254	1.37622 ± 0.00032
303.15 K, Wavelength=644 nm, x2 = 0.9303	1.37759 ± 0.00031
303.15 K, Wavelength=644 nm, x2 = 0.9391	1.37361 ± 0.00031
303.15 K, Wavelength=644 nm, x2 = 0.951	1.36708 ± 0.00031
303.15 K, Wavelength=644 nm, x2 = 0.9599	1.36123 ± 0.00031
303.15 K, Wavelength=644 nm, x2 = 0.9708	1.35335 ± 0.00031
303.15 K, Wavelength=644 nm, x2 = 0.979	1.34838 ± 0.00031
303.15 K, Wavelength=644 nm, x2 = 0.9867	1.34244 ± 0.00031
303.15 K, Wavelength=644 nm, x2 = 0.9936	1.3363 ± 0.00031
303.15 K, Wavelength=706.5 nm, x2 = 0	1.44903 ± 0.00033
303.15 K, Wavelength=706.5 nm, x2 = 0.1056	1.44768 ± 0.00033
303.15 K, Wavelength=706.5 nm, x2 = 0.2069	1.44609 ± 0.00032
303.15 K, Wavelength=706.5 nm, x2 = 0.3104	1.44246 ± 0.00032
303.15 K, Wavelength=706.5 nm, x2 = 0.4844	1.43906 ± 0.00032
303.15 K, Wavelength=706.5 nm, x2 = 0.5016	1.4381 ± 0.00032
303.15 K, Wavelength=706.5 nm, x2 = 0.5952	1.43153 ± 0.00032
303.15 K, Wavelength=706.5 nm, x2 = 0.6016	1.43165 ± 0.00032
303.15 K, Wavelength=706.5 nm, x2 = 0.6788	1.4252 ± 0.00032
303.15 K, Wavelength=706.5 nm, x2 = 0.7835	1.41598 ± 0.00032
303.15 K, Wavelength=706.5 nm, x2 = 0.8184	1.41081 ± 0.00032
303.15 K, Wavelength=706.5 nm, x2 = 0.8473	1.40454 ± 0.00032
303.15 K, Wavelength=706.5 nm, x2 = 0.8719	1.39777 ± 0.00032
303.15 K, Wavelength=706.5 nm, x2 = 0.8926	1.39029 ± 0.00032
303.15 K, Wavelength=706.5 nm, x2 = 0.9106	1.38476 ± 0.00032
303.15 K, Wavelength=706.5 nm, x2 = 0.9254	1.37461 ± 0.00032
303.15 K, Wavelength=706.5 nm, x2 = 0.9303	1.37597 ± 0.00031
303.15 K, Wavelength=706.5 nm, x2 = 0.9391	1.37201 ± 0.00031
303.15 K, Wavelength=706.5 nm, x2 = 0.951	1.36548 ± 0.00031
303.15 K, Wavelength=706.5 nm, x2 = 0.9599	1.35966 ± 0.00031
303.15 K, Wavelength=706.5 nm, x2 = 0.9708	1.35178 ± 0.00031
303.15 K, Wavelength=706.5 nm, x2 = 0.979	1.34683 ± 0.00031
303.15 K, Wavelength=706.5 nm, x2 = 0.9867	1.34092 ± 0.00031
303.15 K, Wavelength=706.5 nm, x2 = 0.9936	1.33481 ± 0.00031
308.15 K, Wavelength=404.7 nm, x2 = 0	1.46397 ± 0.00033
308.15 K, Wavelength=404.7 nm, x2 = 0.1056	1.46262 ± 0.00033
308.15 K, Wavelength=404.7 nm, x2 = 0.2069	1.46101 ± 0.00032
308.15 K, Wavelength=404.7 nm, x2 = 0.3104	1.45847 ± 0.00032
308.15 K, Wavelength=404.7 nm, x2 = 0.4844	1.45365 ± 0.00032
308.15 K, Wavelength=404.7 nm, x2 = 0.5016	1.45268 ± 0.00032
308.15 K, Wavelength=404.7 nm, x2 = 0.5952	1.44587 ± 0.00032
308.15 K, Wavelength=404.7 nm, x2 = 0.6016	1.44608 ± 0.00032
308.15 K, Wavelength=404.7 nm, x2 = 0.6788	1.43943 ± 0.00032
308.15 K, Wavelength=404.7 nm, x2 = 0.7835	1.43059 ± 0.00032
308.15 K, Wavelength=404.7 nm, x2 = 0.8184	1.4247 ± 0.00032
308.15 K, Wavelength=404.7 nm, x2 = 0.8473	1.41822 ± 0.00032
308.15 K, Wavelength=404.7 nm, x2 = 0.8719	1.41127 ± 0.00032
308.15 K, Wavelength=404.7 nm, x2 = 0.8926	1.40352 ± 0.00032
308.15 K, Wavelength=404.7 nm, x2 = 0.9106	1.39814 ± 0.00032
308.15 K, Wavelength=404.7 nm, x2 = 0.9254	1.38807 ± 0.00032
308.15 K, Wavelength=404.7 nm, x2 = 0.9303	1.38901 ± 0.00031
308.15 K, Wavelength=404.7 nm, x2 = 0.9391	1.38539 ± 0.00031
308.15 K, Wavelength=404.7 nm, x2 = 0.951	1.37872 ± 0.00031
308.15 K, Wavelength=404.7 nm, x2 = 0.9599	1.37231 ± 0.00031
308.15 K, Wavelength=404.7 nm, x2 = 0.9708	1.36448 ± 0.00031
308.15 K, Wavelength=404.7 nm, x2 = 0.979	1.35959 ± 0.00031
308.15 K, Wavelength=404.7 nm, x2 = 0.9867	1.35319 ± 0.00031
308.15 K, Wavelength=404.7 nm, x2 = 0.9936	1.34702 ± 0.00031
308.15 K, Wavelength=435.8 nm, x2 = 0	1.46043 ± 0.00033
308.15 K, Wavelength=435.8 nm, x2 = 0.1056	1.4591 ± 0.00033
